Data set [1] deals with bladder cancer cell line (RT112/84). The data set is described as follows: Tumor cell proliferation inhibition (CTG, 72 h). It is filed as cell-based. As to conditions: Homo sapiens.
Data set [2] concerns thyroid cancer cell line (TT). Description: Tumor cell proliferation inhibition (CTG, 72 h). It is filed as cell-based.
Data set [3] in a line: MTD toxicity test in rats. To be noted: rat, in vivo.
Data set [4] has as its system rats. The data set is described as follows: MTD toxicity test in rats. As to conditions: rat, in vivo, 300 mg/kg.
Another data set addresses ABL (Homo sapiens (Human), UniProt P00519). The data set is described as follows: Kinase inhibition, Mobility-Shift Assay. It is filed as biochemical.
A further data set deals with hERG potassium channels (Homo sapiens (Human), UniProt Q12809). The data set is described as follows: hERG in vitro inhibition, whole-cell patch clamp. It is filed as cell-based. To be noted: in vitro hERG current inhibition.
For data set [5], the system named is rats. Description: 28-day GLP toxicity test. It is filed as in vivo. To be noted: 50, 100, 150 mg/kg once a day by gavage, 28 days. As to the method:
The 28-day GLP toxicity test also used healthy rats at three doses (50 mg/kg, 100 mg/kg, 150 mg/kg), and the three groups of rats were administered once a day by gavage, and the toxicity of the test substance was evaluated by observing the toxicity response of the experimental animals for 28 consecutive days. […] Therefore, the preferred compound “III-01” designed and synthesized by the present invention not only has better inhibitory activity, but also has better safety and drug-forming properties, which is worthy of further clinical trials and application.

The subject of data set [6] is hepatocellular carcinoma cell line (Hep3B 2.1-7). Description: Tumor cell proliferation inhibition (CTG, 72 h). It is filed as cell-based. As to conditions: Homo sapiens; Hep3B 2.1-7 cells, class; read-out: Hep3B 2.1-7 range of activity (IC50).
In data set [7] the test system is leukemia cell line (K562). Description: Tumor cell proliferation inhibition (CTG, 72 h). It is filed as cell-based. As to conditions: Homo sapiens; K562 cells, class; read-out: K562 activity effect range (IC50).
The next data set has as its target FGFR1 (Homo sapiens (Human), UniProt P11362). The data set is described as follows: Kinase inhibition, Mobility-Shift Assay. It is filed as biochemical. To be noted: read-out: FGFR-1 IC50.
In another data set the target is EGFR (Homo sapiens (Human), UniProt P00533). Description: Kinase inhibition, Mobility-Shift Assay. It is filed as biochemical.
Sequence of EGFR (P00533 25-1210): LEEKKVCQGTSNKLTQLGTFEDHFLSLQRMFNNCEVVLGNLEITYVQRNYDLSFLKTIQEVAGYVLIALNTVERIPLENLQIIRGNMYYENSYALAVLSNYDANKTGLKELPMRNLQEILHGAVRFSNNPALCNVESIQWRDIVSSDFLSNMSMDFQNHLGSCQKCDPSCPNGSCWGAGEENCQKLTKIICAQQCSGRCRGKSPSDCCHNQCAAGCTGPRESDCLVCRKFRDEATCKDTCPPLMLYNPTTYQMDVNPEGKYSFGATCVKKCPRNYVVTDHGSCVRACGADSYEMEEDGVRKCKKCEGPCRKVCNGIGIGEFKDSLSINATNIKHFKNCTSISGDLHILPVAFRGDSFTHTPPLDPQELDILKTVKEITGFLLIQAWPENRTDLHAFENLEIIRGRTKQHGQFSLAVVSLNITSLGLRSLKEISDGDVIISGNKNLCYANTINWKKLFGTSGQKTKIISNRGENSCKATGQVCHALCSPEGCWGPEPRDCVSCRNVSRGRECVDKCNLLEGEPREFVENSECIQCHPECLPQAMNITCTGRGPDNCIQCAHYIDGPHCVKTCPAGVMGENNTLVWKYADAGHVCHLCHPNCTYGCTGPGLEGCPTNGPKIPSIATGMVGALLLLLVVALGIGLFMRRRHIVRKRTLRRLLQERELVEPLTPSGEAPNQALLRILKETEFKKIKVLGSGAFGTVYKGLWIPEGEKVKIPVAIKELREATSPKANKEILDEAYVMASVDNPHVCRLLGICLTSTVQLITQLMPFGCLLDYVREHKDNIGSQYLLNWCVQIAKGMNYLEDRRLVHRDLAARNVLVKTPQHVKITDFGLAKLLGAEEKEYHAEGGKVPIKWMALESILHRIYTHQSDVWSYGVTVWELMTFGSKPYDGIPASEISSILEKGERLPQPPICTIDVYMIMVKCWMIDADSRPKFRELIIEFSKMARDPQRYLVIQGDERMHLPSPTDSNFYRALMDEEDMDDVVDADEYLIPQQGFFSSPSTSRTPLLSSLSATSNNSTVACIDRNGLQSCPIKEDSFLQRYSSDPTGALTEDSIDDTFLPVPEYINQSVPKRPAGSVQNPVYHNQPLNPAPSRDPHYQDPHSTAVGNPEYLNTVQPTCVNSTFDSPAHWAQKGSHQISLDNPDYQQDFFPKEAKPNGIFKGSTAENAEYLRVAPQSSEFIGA
The next data set has as its target PDGFRα (Homo sapiens (Human), UniProt P16234). The data set is described as follows: Kinase inhibition, Mobility-Shift Assay. It is filed as biochemical.
Another data set deals with FGFR3 (Homo sapiens (Human), UniProt P22607). Description: Kinase inhibition, Mobility-Shift Assay. It is filed as biochemical. To be noted: read-out: FGFR-3 IC50. The method, then: In this experiment, the inhibitory effects of small molecule inhibitors on 17 kinases were examined by using fluorescent microfluidic mobility shift assay (Mobility-Shift Assay).
2. Compounds were configured in 100% DMSO in a concentration gradient and diluted with buffer to 10% DMSO, and added to 384-well plates. Compounds starting at […] are prepared in 100% DMSO to 25 μM and diluted in a gradient of 10 concentrations, then diluted 10-fold in buffer to make an intermediate dilution of the compound containing 10% DMSO and transferred 5 μl to a 384-well plate. 3. The kinase was diluted to optimal concentration with the following buffers: 50 mM HEPES, pH 7.5, 0.00015% Brij-35, 2 mM DTT (final concentration of enzyme reaction: VEGFR-1 (FLT1): 2 nM; VEGFR-2 (KDR): 1.2 nM; VEGFR-3 (FLT4): 1.5 nM; FGFR1: 2 nM); FGFR2: 9 nM; FGFR3: 8 nM; FGFR4: 10 nM; PDGFRα: 3.5 nM; c-MET: 10 nM; RET: 7 nM; EGFR: 6 nM). Transfer 10 μl into a 384-well plate and incubate with the compounds for 10 min. 4. […] Read the conversion rate with Caliper Reader and calculate the conversion rate as suppression, formula Percent inhIcition=(max−conversion)/(max−min)*100. […]

For a further data set, the target named is FGFR2 (Homo sapiens (Human), UniProt P21802). The data set is described as follows: Kinase inhibition, Mobility-Shift Assay. It is filed as biochemical.
Sequence of FGFR2 (P21802 22-821): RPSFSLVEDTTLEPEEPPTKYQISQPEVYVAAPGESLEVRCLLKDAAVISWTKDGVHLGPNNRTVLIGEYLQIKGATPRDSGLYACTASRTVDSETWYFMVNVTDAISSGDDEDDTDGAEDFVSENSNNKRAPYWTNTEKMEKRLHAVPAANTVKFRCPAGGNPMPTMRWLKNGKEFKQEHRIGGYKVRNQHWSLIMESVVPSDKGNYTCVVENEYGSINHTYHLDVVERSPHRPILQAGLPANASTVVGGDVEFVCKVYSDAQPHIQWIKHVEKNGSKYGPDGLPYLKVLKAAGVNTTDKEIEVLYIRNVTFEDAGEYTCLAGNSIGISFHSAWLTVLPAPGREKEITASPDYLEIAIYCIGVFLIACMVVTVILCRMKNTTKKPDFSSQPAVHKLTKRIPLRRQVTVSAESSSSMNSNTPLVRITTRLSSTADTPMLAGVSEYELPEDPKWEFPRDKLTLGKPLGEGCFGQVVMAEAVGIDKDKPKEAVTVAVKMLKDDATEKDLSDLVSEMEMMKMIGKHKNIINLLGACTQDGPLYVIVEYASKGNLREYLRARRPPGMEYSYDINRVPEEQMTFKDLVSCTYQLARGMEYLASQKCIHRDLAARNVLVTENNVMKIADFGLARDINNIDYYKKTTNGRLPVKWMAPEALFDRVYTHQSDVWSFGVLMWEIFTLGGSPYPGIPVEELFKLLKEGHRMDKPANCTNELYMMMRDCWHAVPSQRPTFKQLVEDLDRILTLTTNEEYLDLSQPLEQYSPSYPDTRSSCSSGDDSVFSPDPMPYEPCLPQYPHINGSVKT
The target in the next data set is FGFR4 (Homo sapiens (Human), UniProt P22455). Description: Kinase inhibition, Mobility-Shift Assay. It is filed as biochemical.
Sequence of FGFR4 (P22455 22-802): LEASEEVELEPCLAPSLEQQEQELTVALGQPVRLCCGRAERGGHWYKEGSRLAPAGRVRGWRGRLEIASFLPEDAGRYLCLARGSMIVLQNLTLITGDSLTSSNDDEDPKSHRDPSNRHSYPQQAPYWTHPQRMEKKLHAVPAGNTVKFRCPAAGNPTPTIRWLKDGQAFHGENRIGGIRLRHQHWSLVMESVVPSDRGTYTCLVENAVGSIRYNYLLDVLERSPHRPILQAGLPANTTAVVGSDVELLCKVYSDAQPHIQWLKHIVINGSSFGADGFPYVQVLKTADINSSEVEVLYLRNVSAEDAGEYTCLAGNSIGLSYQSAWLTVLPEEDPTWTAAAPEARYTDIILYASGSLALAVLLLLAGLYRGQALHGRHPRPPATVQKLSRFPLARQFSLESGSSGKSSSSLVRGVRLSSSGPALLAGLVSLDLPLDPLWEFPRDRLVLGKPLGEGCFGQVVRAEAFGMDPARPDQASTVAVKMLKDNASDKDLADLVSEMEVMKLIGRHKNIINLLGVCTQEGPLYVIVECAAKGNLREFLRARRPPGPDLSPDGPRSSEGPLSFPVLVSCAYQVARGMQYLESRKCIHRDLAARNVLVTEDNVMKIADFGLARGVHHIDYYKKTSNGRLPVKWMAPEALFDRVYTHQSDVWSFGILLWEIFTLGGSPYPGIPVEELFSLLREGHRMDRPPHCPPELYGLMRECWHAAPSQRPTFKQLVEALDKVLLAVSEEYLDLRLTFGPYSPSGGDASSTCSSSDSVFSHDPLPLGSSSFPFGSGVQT
In a further data set the target is RET (Homo sapiens (Human), UniProt P07949). The data set is described as follows: Kinase inhibition, Mobility-Shift Assay. It is filed as biochemical.
Another data set deals with C-MET (Homo sapiens (Human), UniProt P08581). The data set is described as follows: Kinase inhibition, Mobility-Shift Assay. It is filed as biochemical.
Sequence of C-MET (P08581 25-1390): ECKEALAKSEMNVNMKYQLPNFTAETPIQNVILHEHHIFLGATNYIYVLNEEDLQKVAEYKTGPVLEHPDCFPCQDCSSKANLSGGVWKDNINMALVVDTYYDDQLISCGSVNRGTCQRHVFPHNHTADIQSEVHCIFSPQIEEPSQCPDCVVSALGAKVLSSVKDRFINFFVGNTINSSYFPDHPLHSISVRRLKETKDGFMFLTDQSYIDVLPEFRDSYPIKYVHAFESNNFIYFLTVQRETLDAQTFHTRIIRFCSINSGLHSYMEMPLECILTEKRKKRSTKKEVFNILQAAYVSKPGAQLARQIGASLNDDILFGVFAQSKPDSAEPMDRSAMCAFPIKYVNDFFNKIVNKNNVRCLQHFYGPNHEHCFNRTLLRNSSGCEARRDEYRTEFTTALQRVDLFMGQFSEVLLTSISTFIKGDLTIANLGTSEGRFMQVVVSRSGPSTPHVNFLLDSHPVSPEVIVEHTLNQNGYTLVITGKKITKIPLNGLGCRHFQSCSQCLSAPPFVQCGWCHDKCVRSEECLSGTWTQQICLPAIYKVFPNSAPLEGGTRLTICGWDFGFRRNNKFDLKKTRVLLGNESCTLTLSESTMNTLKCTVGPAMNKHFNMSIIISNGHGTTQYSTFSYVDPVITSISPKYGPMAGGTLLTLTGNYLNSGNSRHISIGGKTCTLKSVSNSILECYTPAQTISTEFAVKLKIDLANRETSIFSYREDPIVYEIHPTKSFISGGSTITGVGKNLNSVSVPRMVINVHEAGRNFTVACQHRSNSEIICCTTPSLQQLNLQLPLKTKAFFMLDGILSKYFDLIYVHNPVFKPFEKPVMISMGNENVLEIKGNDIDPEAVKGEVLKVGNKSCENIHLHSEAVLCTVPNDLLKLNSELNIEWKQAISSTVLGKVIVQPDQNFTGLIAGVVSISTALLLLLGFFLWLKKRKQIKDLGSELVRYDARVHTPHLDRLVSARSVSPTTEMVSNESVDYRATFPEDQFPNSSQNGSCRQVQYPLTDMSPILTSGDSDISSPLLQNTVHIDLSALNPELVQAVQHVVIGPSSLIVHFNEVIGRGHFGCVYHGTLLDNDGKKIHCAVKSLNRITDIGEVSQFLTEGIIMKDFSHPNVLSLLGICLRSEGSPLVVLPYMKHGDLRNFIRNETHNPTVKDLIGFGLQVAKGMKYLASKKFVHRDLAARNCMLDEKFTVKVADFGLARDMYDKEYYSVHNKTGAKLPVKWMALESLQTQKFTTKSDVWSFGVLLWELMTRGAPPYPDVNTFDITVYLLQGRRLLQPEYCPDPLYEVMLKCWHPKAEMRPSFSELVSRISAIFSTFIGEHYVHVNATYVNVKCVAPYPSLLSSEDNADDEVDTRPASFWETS
The target of the next data set is VEGFR-2 (KDR) (Homo sapiens (Human), UniProt P35968). Description: Kinase inhibition, Mobility-Shift Assay. It is filed as biochemical.
The target of another data set is VEGFR-3 (FLT4) (Homo sapiens (Human), UniProt P35916). The data set is described as follows: Kinase inhibition, Mobility-Shift Assay. It is filed as biochemical.
A further data set addresses VEGFR-1 (FLT1) (Homo sapiens (Human), UniProt P17948). Description: Kinase inhibition, Mobility-Shift Assay. It is filed as biochemical.
Data set [8] relates to cervical cancer cell line (Hela). The data set is described as follows: Tumor cell proliferation inhibition (CTG, 72 h). To be noted: Homo sapiens; Hela cells, class; read-out: Hela activity effect range (IC50). It is filed as cell-based.
[9] abbreviates: RT112/84 bladder cancer cells, 72 h, read-out: RT112/84 (uM), inhibitory activity IC50.
[10] abbreviates: RT112/84 cells, class, read-out: RT112/84 range of activity (IC50).
Setting [11] is: Homo sapiens, TT cells, class, read-out: TT range of activity (IC50).
The mark [12] stands for this setting: TT thyroid cancer cells, 72 h, read-out: TT (uM), inhibitory activity IC50.
[13] abbreviates: class, read-out: FGFR2 range of activity effects (IC50).
Where [14] appears, read: class, read-out: FGFR4 range of activity effects (IC50).
Setting [15] is: class, read-out: C-MET range of activity (IC50).

Several values for one entry are separate records, joined by “and”; a condition that tells them apart may be missing. Equal entries are not always repeated. Where two headings read alike, the source gives them in different places. A value given as a limit tells only on which side of the number the result lay.

Sequence of FGFR1 (P11362 22-822): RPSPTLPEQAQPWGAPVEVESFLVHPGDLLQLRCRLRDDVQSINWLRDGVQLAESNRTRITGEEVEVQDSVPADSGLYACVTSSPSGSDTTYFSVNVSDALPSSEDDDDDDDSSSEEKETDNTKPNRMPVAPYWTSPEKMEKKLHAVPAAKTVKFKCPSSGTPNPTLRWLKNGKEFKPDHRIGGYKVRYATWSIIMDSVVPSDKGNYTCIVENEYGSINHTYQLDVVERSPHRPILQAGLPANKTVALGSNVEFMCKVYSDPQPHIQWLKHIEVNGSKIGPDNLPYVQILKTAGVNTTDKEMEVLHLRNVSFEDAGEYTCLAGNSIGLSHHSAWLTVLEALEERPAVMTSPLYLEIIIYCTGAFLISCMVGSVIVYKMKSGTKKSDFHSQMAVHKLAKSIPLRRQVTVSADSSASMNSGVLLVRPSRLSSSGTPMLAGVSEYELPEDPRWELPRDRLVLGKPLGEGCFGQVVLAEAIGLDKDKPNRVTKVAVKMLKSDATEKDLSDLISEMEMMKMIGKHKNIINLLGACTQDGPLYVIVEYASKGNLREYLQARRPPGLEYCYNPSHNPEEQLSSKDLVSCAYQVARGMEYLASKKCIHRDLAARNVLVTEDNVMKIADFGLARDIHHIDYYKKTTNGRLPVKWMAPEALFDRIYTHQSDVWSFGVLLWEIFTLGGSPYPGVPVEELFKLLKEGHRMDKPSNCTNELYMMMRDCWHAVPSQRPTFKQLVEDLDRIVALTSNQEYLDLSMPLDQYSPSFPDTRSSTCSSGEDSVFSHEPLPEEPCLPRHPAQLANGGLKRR

Turning to `COc1cc2nccc(Oc3c(F)cc(NC(=O)NC4CC4)c(Cl)c3F)c2cc1C(N)=O` [III-01], the IC50 in data set [1] (setting [9]) was 0.13 µM; in data set [1] (setting [10]) it was under 0.2 µM; in data set [2] (setting [11]) it was under 5 µM; in data set [2] (setting [12]), 1.5 µM; at ABL it was 0.068 µM; at hERG potassium channels it was over 30 µM. Further, the IC50 was under 2.5 µM in data set [6]; 5 to 10 µM in data set [7]; 0.014 µM on FGFR1; under 0.06 µM at EGFR (class, read-out: EGFR range of activity (IC50)); 0.058 µM and 0.053 µM at EGFR (read-out: EGFR IC50); 0.0079 µM at PDGFRα. For the same compound, the IC50 at FGFR3 is 0.022 µM; on FGFR2 (setting [13]) it was under 0.03 µM; on FGFR2 (read-out: FGFR-2 IC50) it was 0.011 µM; at FGFR4 (setting [14]) it was under 0.03 µM; on FGFR4 (read-out: FGFR-4 IC50) it was 0.017 µM; at RET, 0.0025 µM. Further, the IC50 at C-MET (setting [15]) is 0.06 to 0.1 µM; on C-MET (read-out: C-MET IC50), 0.096 µM; at VEGFR-2 (KDR) (class, read-out: KDR activity effect range (IC50)), under 0.002 µM; at VEGFR-2 (KDR) (read-out: VEGFR-2 (KDR) IC50), 0.0006 µM; on VEGFR-3 (FLT4) it was 0.0011 µM; on VEGFR-1 (FLT1), 0.0037 µM. In addition, the IC50 in data set [8] lay in the range of 5 to 10 µM. Moreover, the MTD in [3] (300 mg/kg, rats, read-out: MTD toxicity dose) was 300 mg/kg; in data set [3] (rats, read-out: MTD toxicity dose) it was over 300 mg/kg. For the same compound, the “Observation at MTD dose” value in the data set with rats [4] was “without any abnormalities such as death”. For the same compound, the “Autopsy results, 28-day GLP toxicity test” value in the data set on rats [5] is listed as “did not reveal any abnormal changes”. For the same compound, the Ames assay entry in “Ames assay” is “negative”.

With `COc1cc2nccc(Oc3ccc(NC(=O)NC4CC4)c(Cl)c3)c2cc1C(N)=O` [Lenvatinib, reference compound], the IC50 was 0.29 µM in [1] (setting [9]); 0.2 to 1 µM in [1] (setting [10]); over 10 µM in data set [2] (setting [11]); over 10 µM in [2] (setting [12]); 0.056 µM on FGFR1; 0.027 µM on PDGFRα. The IC50 on FGFR3 is 0.059 µM; at FGFR2 (setting [13]) it was 0.03 to 0.1 µM; at FGFR2 (read-out: FGFR-2 IC50), 0.027 µM; at FGFR4 (setting [14]) it was 0.03 to 0.1 µM; at FGFR4 (read-out: FGFR-4 IC50), 0.065 µM; at C-MET (setting [15]), over 0.1 µM. Also, the IC50 on C-MET (read-out: C-MET IC50) was over 1 µM; on VEGFR-3 (FLT4), 0.0032 µM. The MTD in data set [3] amounted to 40 mg/kg.

The values are drawn from patent US12071408B2, “Multi-targeted tyrosine kinase inhibitors effective in antitumor uses” (Shanghai AB PharmaTech Ltd., priority 2021, dated 2024).
